Test results: paper PMC6478823, “A suite of phenotypic assays to ensure pipeline diversity when prioritizing drug-like Cryptosporidium growth inhibitors” (Nature Communications, 2019)
Read-outs that look alike come from different tables or passages of the source.

Columns and labels:
[1] = system: C. parvum; assay: DNA replication assay (EdU incorporation); type: cell-based, Cryptosporidium parvum; conditions: compound at EC90; for DNA Synthesis Assay: Mean % Inhibition of EdU-labeling (normalized to parasite numbers), Average: average of replicates; for DNA Synthesis Assay: Mean % Inhibition of EdU-labeling (normalized to parasite numbers), Replicate 1: single replicate 1; for DNA Synthesis Assay: Mean % Inhibition of EdU-labeling (normalized to parasite numbers), Replicate 2: single replicate 2; for DNA Synthesis Assay: Mean % Inhibition of EdU-labeling (normalized to parasite numbers), Replicate 3: single replicate 3; for DNA synthesis: yes/no grouping by phenotypic assay result; for DNA Synthesis Assay: Mean % Inhibition of EdU-labeling (normalized to parasite numbers), Replicate 4: single replicate 4; for DNA Synthesis Assay: Mean % Inhibition of EdU-labeling (normalized to parasite numbers), Replicate 5: single replicate 5
[2] = system: C. parvum; assay: 48 h Cryptosporidium growth inhibition assay; type: cell-based, Cryptosporidium parvum; conditions: compound added 3 h post-infection, read at 48 h
From the text: As a first step in developing specific Cryptosporidium mode of action assays, we conducted a series of light microscopy time-lapse and transmission electron microscopy (TEM) time course experiments in order to precisely define C. parvum development within the HCT-8 cell culture system. […] This synchronicity was exploited by modifying a previously developed high-content microscopy assay. These assay modifications enabled the evaluation of several key events within the life cycle: host cell invasion, intracellular replication, host cell egress and establishment of new parasitophorous vacuoles, and sexual differentiation. […] Since the methods all used automated liquid handling, imaging, and image analysis, the assay methods all incorporated nuclear staining to monitor host cell numbers and enable recognition of HCT-8 cell monolayer damage, for example as an artifact from a malfunctioning plate washer or from unanticipated cytotoxicity of the compounds.
Human ileocecal adenocarcinoma (HCT-8) cells were purchased from ATCC (catalog# CCL-244) and cultured in ATCC modified RPMI-1640 medium (Gibco, catalog# A10491–01), supplemented with 10% heat-inactivated fetal bovine serum (Sigma-Aldrich, catalog# 12306C) and 120 U/mL penicillin and 120 μg/mL streptomycin (Gibco, catalog# 15140-122) (culture media). […] For all experiments, HCT-8 cells between passages 9 and 39 were used. C. parvum (Iowa isolate) oocysts were purchased from Bunchgrass Farm (Deary, ID), stored at 4 °C and used within 5 months of collection from an infected calf. To induce excystation, oocysts were first treated with 10 mM hydrochloric acid for 10 min at 37 °C, spun at 14,000×g for 4.5 min at room temperature, treated with 2 mM sodium taurocholate for 10 min at 16 °C, spun as before, and resuspended in culture media for infection.
A modification of a previously reported immunofluorescence assay was used to determine the EC50 and EC90 of compounds[13]. HCT-8 cells were grown to ≥ 90% confluence in 384-well plates (Corning, catalog# 353962) and infected with 5500 oocysts per well after they were induced for excystation as described above. Different concentrations of compounds were added 3 h post-infection and plates were incubated for another 45 h in a 5% CO2 incubator at 37 °C. Wells were then washed 3 times with PBS containing 111 mM D-galactose (PBS-D-gal), fixed with 4% paraformaldehyde (PFA) in PBS for 15 min at room temperature, permeabilized with 0.25% Triton X-100 for 10 min at 37 °C, washed 3 times with PBS with 0.1% Tween 20, and blocked with 4% bovine serum albumin (BSA) in PBS for 2 h at 37 °C or 4 °C overnight. Parasitophorous vacuoles were stained with 1.33 µg/mL of fluorescein-labeled Vicia villosa lectin (Vector Laboratories, catalog# FL-1231) diluted in 1% BSA in PBS with 0.1% Tween 20 for 1 h at 37 °C, followed by addition of Hoechst 33258 (AnaSpec, catalog# AS-83219) at 0.09 mM diluted in water for another 15 min at 37 °C. Wells were then washed 5 times with PBS containing 0.1% Tween 20. A Nikon Eclipse Ti2000 epifluorescence microscope with an automated stage was programmed using NIS-Elements Advanced Research software (Nikon, USA) to focus on the center of each well and take a 3 × 3 or 6 × 6 composite image using an EXi blue fluorescence microscopy camera (QImaging, Canada) with a 20 × objective (NA = 0.45). Nuclei and parasite images were separately exported as.tif files and analyzed using macros developed on the ImageJ platform (National Institutes of Health)[13].

[3] = system: C. parvum; assay: Egress, motility, reinvasion assay (PV ratio); conditions: compound at EC90; for Egress and Reinvasion Assay: Mean PV ratios (19.5h:6h), Average: average of replicates; for Egress and Reinvasion Assay: Mean PV ratios (19.5h:6h), Replicate 1a: single replicate 1; for Egress and Reinvasion Assay: Mean PV ratios (19.5h:6h), Replicate 2a: single replicate 2; for Egress and Reinvasion Assay: Mean PV ratios (19.5h:6h), Replicate 3a: single replicate 3; for Egress and Reinvasion Assay: Mean PV ratios (19.5h:6h), Replicate 4a: single replicate 4
Protocol: For quantification of parasitophorous vacuoles over time, HCT-8 cells were grown to greater than 90% confluence in 384-well plates and infected with 11,000 oocysts after triggering excystation.

[4] = Cryptosporidium parvum, HCT-8, read-out: Regular 3 to 48 h assay in vitro EC90, C. parvum in HCT-8 cells
[5] = read-out: Regular 3 to 48 h assay in vitro EC90, C. parvum in HCT-8 cells

SMILES | DNA Synthesis Assay: Mean % Inhibition of EdU-labeling (normalized to parasite numbers), Average [1] | DNA Synthesis Assay: Mean % Inhibition of EdU-labeling (normalized to parasite numbers), Replicate 1 [1] | DNA Synthesis Assay: Mean % Inhibition of EdU-labeling (normalized to parasite numbers), Replicate 2 [1] | EC90 [2, 4] | Egress and Reinvasion Assay: Mean PV ratios (19.5h:6h), Average [3] | Egress and Reinvasion Assay: Mean PV ratios (19.5h:6h), Replicate 1a [3] | Egress and Reinvasion Assay: Mean PV ratios (19.5h:6h), Replicate 2a [3] | Egress and Reinvasion Assay: Mean PV ratios (19.5h:6h), Replicate 3a [3] | Egress and Reinvasion Assay: Mean PV ratios (19.5h:6h), Replicate 4a [3] | effect on C. parvum DNA replication / EdU incorporation ([1]; result in words) | DNA Synthesis Assay: Mean % Inhibition of EdU-labeling (normalized to parasite numbers), Replicate 3 [1] | DNA synthesis [1] | EC90 [2, 5] | DNA Synthesis Assay: Mean % Inhibition of EdU-labeling (normalized to parasite numbers), Replicate 4 [1] | DNA Synthesis Assay: Mean % Inhibition of EdU-labeling (normalized to parasite numbers), Replicate 5 [1]
O=C(CC1NCCCC1O)Cn1cnc2cc(Br)c(Cl)cc2c1=O (centres unmarked) [Halofuginone] | 88.20% | 85.31% | 91.09% | 0.34 µM | 0.69 | 0.76 | 1.01 | 0.53 | 0.46 |  |  |  |  |  | 
NC[C@@H]1O[C@H](O[C@H]2[C@@H](O)[C@H](O[C@@H]3[C@@H](O)[C@H](N)C[C@H](N)[C@H]3O[C@H]3O[C@H](CO)[C@@H](O)[C@H](O)[C@H]3N)O[C@@H]2CO)[C@H](N)[C@@H](O)[C@@H]1O [Paromomycin] | 18.81% | -11.54% | 39.99% | 2390 µM | 2.15 | 2.19 | 2.11 |  |  | no effect on EdU incorporation | 27.99% |  |  |  | 
[H]/N=C(/NCCCCC)N/N=C/c1c[nH]c2ccc(OC)cc12 [Tegaserod] | -6.72% | -11.69% | -25.63% | 10.3 µM | 1.01 | 0.96 | 1.06 |  |  |  | 17.15% | no |  |  | 
Cc1cccc(-n2ncc3c(O)nc(-n4nc(C)cc4NC(=O)c4cc5ccccc5o4)nc32)c1 [C-1] | 91.44% | 100% | 100% |  | 0.80 | 0.80 | 1.08 | 0.56 | 0.76 |  | 74.32% |  | 0.65 µM |  | 
c1ccc(CNc2nc(NCc3ccccc3)c3ccccc3n2)cc1 [B-23] | 1.59% | -16.14% | 17.17% |  | 1.55 | 1.73 | 1.36 |  |  |  | 3.74% | no | 10.8 µM |  | 
CCOc1ccc2cc(-c3nn(CC4CCN(C)CC4)c4ncnc(N)c34)ccc2c1 [BKI-1294] | -5.73% | -9.55% | -1.92% |  | 1.49 | 1.81 | 1.18 |  |  |  |  |  | 22.4 µM |  | 
C[C@H]1CCC[C@H](C[C@H]2Cc3cc(O)cc(O)c3C(=O)O2)O1 [Cladosporin] | 93.15% | 89.75% | 94.02% | 0.49 µM | 0.68 | 0.52 | 0.83 |  |  |  | 89.08% |  |  | 93.50% | 99.40%
CCC(C)n1ncn(-c2ccc(N3CCN(c4ccc(OCC5COC(Cn6cncn6)(c6ccc(Cl)cc6Cl)O5)cc4)CC3)cc2)c1=O (centres unmarked) [Itraconazole] | -4.89% | 6.01% | -18.49% | 7.24 µM | 1.77 | 2.21 | 1.33 |  |  |  | -2.19% |  |  |  | 
CC(C)/N=c1\cc2n(-c3ccc(Cl)cc3)c3ccccc3nc-2cc1Nc1ccc(Cl)cc1 [Clofazimine] | 88.58% | 99.92% | 100.00% | 19.6 µM | 0.77 | 1.03 | 1.03 | 0.51 | 0.49 |  | 87.22% |  |  | 73.51% | 82.28%
